Assay results taken from patent EP2493892B1, “QUINUCLIDINE COMPOUNDS AS ALPHA-7 NICOTINIC ACETYLCHOLINE RECEPTOR LIGANDS” (Bristol-Myers Squibb Company, priority 2009, dated 2011).

Biological target: T1, α-7 nicotinic ACh receptor ion channels expressed in mammalian HEK 293 cells (Rattus norvegicus, UniProt Q05941)
T1 construct: expressed in transfected cells
Experiment: Ca2+-sensitive, fluorescence-based assay for α-7 nicotinic acetylcholine receptor channel function in mammalian cells (FLIPR)
Type: cell-based
Details: agonist activity, Ca2+ flux, read-out: FLIPR α7 activity rating (EC50)
Description: • I) α7 Nicotinic Acetycholine Receptor Binding. Membranes were prepared for binding using HEK293 cells stably expressing the rat α7 nicotinic acetycholine receptor (rat α7 nAChR). Cells were homogenized at 4°C in hypotonic lysis buffer consisting of 10 mM Tris (pH 7.4), 5 mM EDTA and protease inhibitors and centrifuged at 32000 xg for 20 minutes. The pellet was washed once in membrane wash buffer consisting of 50 mM Tris (pH 7.4), 1 mM EDTA and protease inhibitors and centrifuged at 32000 xg for 20 minutes. This pellet was then resuspended in assay buffer consisting 50 mM KH2PO4 (pH 7.4 at 25°C), 1 mM EDTA, 0.005 % Triton-X 100 and 0.1% (v/v) Sigma Protease Inhibitor Cocktail. Aliquots were then frozen in dry ice/ethanol and kept at -80°C until the day of the assay. • II) A Ca^2+ -Sensitive, Fluorescence-Based Assay α-7 for Nicotinic Acetylcholine Receptor Channel Function In Mammalian Cells ("FLIPR"). Summary: Lead compounds are evaluated for agonist activity at α-7, α3β4, α4αβ2, and α1β1δ1ε sub-types of nicotinic ACh receptor ion channels expressed in mammalian HEK 293 cells. Agonist potency and efficacy values are determined from kinetic fluorescence Ca^2+ influx measurements made using a 384 well FLIPR (Fluorescence Image Plate Reader). […] The basal fluorescence from the cells is monitored in real time, followed by the acute addition of test compounds. […]

T1 sequence (Q05941 23-502): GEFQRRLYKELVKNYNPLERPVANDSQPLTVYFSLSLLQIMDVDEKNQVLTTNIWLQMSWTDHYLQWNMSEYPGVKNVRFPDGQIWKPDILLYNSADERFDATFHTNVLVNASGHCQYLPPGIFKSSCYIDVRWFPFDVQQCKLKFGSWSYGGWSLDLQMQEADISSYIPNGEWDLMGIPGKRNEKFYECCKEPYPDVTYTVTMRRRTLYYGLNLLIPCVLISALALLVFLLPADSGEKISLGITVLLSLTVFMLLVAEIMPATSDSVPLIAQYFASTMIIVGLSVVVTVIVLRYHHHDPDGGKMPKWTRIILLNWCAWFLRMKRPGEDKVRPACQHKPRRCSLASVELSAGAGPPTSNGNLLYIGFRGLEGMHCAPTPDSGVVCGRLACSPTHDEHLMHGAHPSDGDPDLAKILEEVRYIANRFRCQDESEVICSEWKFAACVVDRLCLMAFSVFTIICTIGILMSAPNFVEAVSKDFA

c1cncc(-c2ccnc(NC3=NC[C@@]4(CN5CCC4CC5)O3)c2)c1 [Example 1, (R)-N-(3,4'-Bipyridin-2'-yl)-4H-1'-azaspiro[oxazole-5,3'-bicyclo[2.2.2]octan]-2-amine]
EC50: < 100 nM
